From ChEMBL document CHEMBL1201862, “PubChem BioAssay data set” (2004)
Calls of active or inactive are those of the source.

What was measured:
[1] = molecular target: Sphingosine 1-phosphate receptor 5 (Homo sapiens, UniProt Q9H228); assay: S1P5 receptor agonists, human, late-stage follow-up, counter-screen for S1P4 agonist project, cell-based, fluorescence, set 2 (AID 504867); format: functional
[2] = molecular target: Sphingosine 1-phosphate receptor 3 (Homo sapiens, UniProt Q99500); assay: Late-stage fluorescence-based dose-response cell-based counterscreen assay to identify agonists of the Sphingosine 1-Phosphate Receptor 4 (S1P4): Sphingosine 1-Phosphate Receptor 3 (S1P3) agonist assay Set 2.; format: functional
[3] = molecular target: Sphingosine 1-phosphate receptor 2 (Homo sapiens, UniProt O95136); assay: S1P2 receptor agonists, human, late-stage follow-up, counter-screen for S1P4 agonist project, cell-based, fluorescence, set 2 (AID 504873); format: functional
[4] = molecular target: Sphingosine 1-phosphate receptor 1 (Homo sapiens, UniProt P21453); assay: Late-stage fluorescence-based dose-response cell-based counterscreen assay to identify agonists of the Sphingosine 1-Phosphate Receptor 4 (S1P4): Sphingosine 1-Phosphate Receptor 1 (S1P1) agonist assay Set 2.; format: functional
Beta Lactamase = Beta Lactamase (Pseudomonas aeruginosa, UniProt Q932Y6); assay: beta-lactamase reporter inhibitor potency, dose response, artefact control for TLR9-MyD88 binding inhibitor project, BLA reporter cells, FRET fluorescence (AID 588341); format: cell-based;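 note: cell based assay in CHO-K1 cells stably expressing beta-lactamase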
[5] = Luminescence Cell-Based Dose Retest to Confirm Inhibitors of Cancer Stem Cells. [Related pubchem assays (depositor defined):AID2717, AID2721]; format: functional; details: Homo sapiens
CHO = assay: cytotoxicity in TLR9-MyD88 CHO cells, dose response, cytotoxicity control for TLR9-MyD88 binding inhibitor project, cell-based, luminescence (AID 588339); format: functional, hamster; details: Cricetulus griseus;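 note: CHO cells stably coexpressing TLR9 and MyD88 fusions from primary screen; compound exposure lasted 48 hours before viability readout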
[6] = molecular target: Neuropeptides B/W receptor type 1 (Homo sapiens, UniProt P48145); assay: GPR7 antagonist potency, late-stage follow-up, cell-based, fluorescence, dose response, set 6 (AID 588583); format: functional
[7] = molecular target: Melanin-concentrating hormone receptor 1 (Homo sapiens, UniProt Q99705); assay: Late-stage fluorescence-based counterscreen for antagonists of the G-protein coupled receptor 7 (GPR7): cell-based dose response assay to identify antagonists of the melanin-concentrating hormone receptor 1 (MCHR1) Set 6.; format: functional
[8] = molecular target: DNA dC->dU-editing enzyme APOBEC-3A (Homo sapiens, UniProt P31941); assay: SAR analysis of small molecule inhibitors of APOBEC3A DNA Deaminase via a fluorescence-based single-stranded DNA deaminase assay.; format: functional; details: read-out: IC50_Mean
[9] = molecular target: DNA dC->dU-editing enzyme APOBEC-3G (Homo sapiens, UniProt Q9HC16); assay: APOBEC3G deaminase inhibitors, SAR follow-up, biochemical, fluorescence, single-stranded DNA substrate (AID 602136); format: functional; details: read-out: IC50_Mean
[10] = molecular target: Calcium/calmodulin-dependent protein kinase type II subunit alpha (Homo sapiens, UniProt Q9UQM7); assay: Navigating the Kinome. Panel member name: CAMK2A; format: functional
[11] = molecular target: Proto-oncogene tyrosine-protein kinase receptor Ret (Homo sapiens, UniProt P07949); format: functional;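 note: measured within a kinome-wide profiling panel, RET as the panel member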
[12] = molecular target: Platelet-derived growth factor receptor alpha (Homo sapiens, UniProt P16234); assay: Navigating the Kinome. Panel member name: PDGFRA; format: functional
[13] = molecular target: Serine/threonine-protein kinase TAO1 (Homo sapiens, UniProt Q7L7X3); format: functional
[14] = molecular target: Cyclin-dependent kinase 8 (Homo sapiens, UniProt P49336); assay: Navigating the Kinome. Panel member name: CDK8; format: functional
[15] = molecular target: Tyrosine-protein kinase BTK (Homo sapiens, UniProt Q06187); format: functional
[16] = molecular target: Tyrosine-protein kinase Fyn (Homo sapiens, UniProt P06241); format: functional
[17] = molecular target: Tyrosine-protein kinase Lck (Homo sapiens, UniProt P06239); format: functional;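 note: lck was assayed as one member of a kinase panel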
Focal adhesion kinase 1 = Focal adhesion kinase 1 (Homo sapiens, UniProt Q05397); format: functional;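 note: measured as one member of a kinome panel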
[18] = molecular target: ALK tyrosine kinase receptor (Homo sapiens, UniProt Q9UM73); format: functional;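 note: ALK tested as one member of a kinase panel screen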
Wee1-like protein kinase = Wee1-like protein kinase (Homo sapiens, UniProt P30291); assay: Navigating the Kinome. Panel member name: WEE1; format: functional
[19] = molecular target: Cell division cycle 7-related protein kinase (Homo sapiens, UniProt O00311); format: functional;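 note: value obtained from a kinome-wide kinase panel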
[20] = molecular target: Dual specificity tyrosine-phosphorylation-regulated kinase 1B (Homo sapiens, UniProt Q9Y463); assay: Navigating the Kinome. Panel member name: DYRK1B; format: functional
[21] = molecular target: Cyclin-dependent kinase 9 (Homo sapiens, UniProt P50750); format: functional;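 note: value from the CDK9 entry of a kinome-spanning kinase panel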
[22] = molecular target: Glycogen synthase kinase-3 beta (Homo sapiens, UniProt P49841); format: functional;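 note: value comes from a broad kinome profiling panel, with GSK3B as the panel member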
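Throughout, for AC50: cells exposed to compound for roughly 70 hours or longer before luminescence read.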

Sequence of Sphingosine 1-phosphate receptor 3 (Q99500 whole entry): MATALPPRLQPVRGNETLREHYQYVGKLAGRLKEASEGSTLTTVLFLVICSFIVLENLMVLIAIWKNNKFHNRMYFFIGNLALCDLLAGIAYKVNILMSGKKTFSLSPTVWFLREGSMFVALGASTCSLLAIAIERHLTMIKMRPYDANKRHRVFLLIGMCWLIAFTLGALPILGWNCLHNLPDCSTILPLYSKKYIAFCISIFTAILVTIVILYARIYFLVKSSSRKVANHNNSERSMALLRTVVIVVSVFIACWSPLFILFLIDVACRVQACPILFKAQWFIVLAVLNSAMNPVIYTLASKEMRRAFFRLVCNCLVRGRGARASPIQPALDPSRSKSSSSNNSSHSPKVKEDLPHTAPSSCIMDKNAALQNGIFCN
Sequence of Beta Lactamase (Q932Y6 whole entry): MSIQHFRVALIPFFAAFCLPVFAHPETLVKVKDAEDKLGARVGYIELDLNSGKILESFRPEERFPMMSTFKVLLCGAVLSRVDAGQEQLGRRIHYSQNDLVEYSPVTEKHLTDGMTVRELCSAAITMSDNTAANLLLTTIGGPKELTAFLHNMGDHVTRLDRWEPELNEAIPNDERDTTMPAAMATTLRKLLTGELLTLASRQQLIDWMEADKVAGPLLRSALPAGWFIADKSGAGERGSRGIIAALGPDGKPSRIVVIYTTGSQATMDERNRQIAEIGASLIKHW
Sequence of Glycogen synthase kinase-3 beta (P49841 whole entry): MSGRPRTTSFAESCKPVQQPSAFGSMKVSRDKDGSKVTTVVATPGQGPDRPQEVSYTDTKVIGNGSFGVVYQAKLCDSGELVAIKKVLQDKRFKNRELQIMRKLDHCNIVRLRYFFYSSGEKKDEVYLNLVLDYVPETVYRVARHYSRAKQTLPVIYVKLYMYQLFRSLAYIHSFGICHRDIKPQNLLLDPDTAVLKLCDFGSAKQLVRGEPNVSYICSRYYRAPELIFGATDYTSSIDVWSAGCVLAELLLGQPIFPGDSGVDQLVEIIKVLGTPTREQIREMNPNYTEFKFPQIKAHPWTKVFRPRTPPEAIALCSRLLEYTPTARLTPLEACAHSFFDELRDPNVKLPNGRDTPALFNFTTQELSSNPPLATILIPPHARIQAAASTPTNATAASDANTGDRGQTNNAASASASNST
Sequence of Sphingosine 1-phosphate receptor 1 (P21453 whole entry): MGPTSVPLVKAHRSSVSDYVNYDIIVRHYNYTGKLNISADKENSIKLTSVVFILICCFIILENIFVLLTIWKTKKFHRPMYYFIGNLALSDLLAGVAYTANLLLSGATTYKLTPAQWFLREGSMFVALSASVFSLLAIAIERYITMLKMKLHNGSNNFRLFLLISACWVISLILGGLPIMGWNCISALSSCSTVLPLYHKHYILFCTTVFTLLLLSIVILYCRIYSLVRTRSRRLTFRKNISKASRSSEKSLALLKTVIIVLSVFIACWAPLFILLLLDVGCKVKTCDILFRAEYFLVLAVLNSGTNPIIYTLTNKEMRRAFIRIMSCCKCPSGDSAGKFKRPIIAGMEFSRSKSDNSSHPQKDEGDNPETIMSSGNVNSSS
Sequence of DNA dC->dU-editing enzyme APOBEC-3G (Q9HC16 whole entry): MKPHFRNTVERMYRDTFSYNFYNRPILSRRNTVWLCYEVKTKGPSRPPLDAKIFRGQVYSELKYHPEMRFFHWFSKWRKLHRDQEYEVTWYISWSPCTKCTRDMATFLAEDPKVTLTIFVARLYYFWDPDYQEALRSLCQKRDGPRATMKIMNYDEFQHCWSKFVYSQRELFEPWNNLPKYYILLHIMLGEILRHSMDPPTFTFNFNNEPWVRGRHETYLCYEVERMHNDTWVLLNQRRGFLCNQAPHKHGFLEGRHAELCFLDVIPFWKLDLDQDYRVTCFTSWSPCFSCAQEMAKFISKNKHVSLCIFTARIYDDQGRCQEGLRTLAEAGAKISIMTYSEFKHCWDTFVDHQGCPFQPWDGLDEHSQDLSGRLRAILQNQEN
Sequence of Cyclin-dependent kinase 8 (P49336 whole entry): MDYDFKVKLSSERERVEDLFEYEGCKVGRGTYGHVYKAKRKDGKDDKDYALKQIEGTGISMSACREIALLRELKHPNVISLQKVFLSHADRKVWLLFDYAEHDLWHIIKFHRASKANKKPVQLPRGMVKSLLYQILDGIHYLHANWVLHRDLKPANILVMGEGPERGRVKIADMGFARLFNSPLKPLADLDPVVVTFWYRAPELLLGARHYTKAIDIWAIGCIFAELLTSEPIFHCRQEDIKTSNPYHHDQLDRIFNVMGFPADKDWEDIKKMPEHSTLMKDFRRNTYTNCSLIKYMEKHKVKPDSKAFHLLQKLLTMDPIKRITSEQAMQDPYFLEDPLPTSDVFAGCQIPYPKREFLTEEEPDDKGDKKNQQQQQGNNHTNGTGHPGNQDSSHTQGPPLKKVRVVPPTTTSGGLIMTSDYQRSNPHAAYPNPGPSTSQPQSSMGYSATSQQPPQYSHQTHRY
Sequence of Sphingosine 1-phosphate receptor 5 (Q9H228 whole entry): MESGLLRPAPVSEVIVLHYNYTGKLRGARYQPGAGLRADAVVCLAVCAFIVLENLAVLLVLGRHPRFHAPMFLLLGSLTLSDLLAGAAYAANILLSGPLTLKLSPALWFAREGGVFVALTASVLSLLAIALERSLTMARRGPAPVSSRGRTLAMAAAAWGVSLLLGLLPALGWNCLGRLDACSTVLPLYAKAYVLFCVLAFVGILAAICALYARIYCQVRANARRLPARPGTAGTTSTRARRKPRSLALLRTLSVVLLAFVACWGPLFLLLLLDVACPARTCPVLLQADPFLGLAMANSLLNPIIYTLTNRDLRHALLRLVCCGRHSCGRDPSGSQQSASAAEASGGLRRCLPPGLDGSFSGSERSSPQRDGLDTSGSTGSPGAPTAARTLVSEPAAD
Sequence of Neuropeptides B/W receptor type 1 (P48145 whole entry): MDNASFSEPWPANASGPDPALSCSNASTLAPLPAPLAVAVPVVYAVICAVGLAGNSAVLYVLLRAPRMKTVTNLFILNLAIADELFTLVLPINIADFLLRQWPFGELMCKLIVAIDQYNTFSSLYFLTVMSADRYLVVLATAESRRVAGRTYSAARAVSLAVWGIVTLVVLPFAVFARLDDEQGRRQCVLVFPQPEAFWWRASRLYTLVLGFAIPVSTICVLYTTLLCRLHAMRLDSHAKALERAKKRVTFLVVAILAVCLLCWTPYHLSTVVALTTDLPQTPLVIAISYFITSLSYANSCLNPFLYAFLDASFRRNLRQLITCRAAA
Sequence of Cell division cycle 7-related protein kinase (O00311 whole entry): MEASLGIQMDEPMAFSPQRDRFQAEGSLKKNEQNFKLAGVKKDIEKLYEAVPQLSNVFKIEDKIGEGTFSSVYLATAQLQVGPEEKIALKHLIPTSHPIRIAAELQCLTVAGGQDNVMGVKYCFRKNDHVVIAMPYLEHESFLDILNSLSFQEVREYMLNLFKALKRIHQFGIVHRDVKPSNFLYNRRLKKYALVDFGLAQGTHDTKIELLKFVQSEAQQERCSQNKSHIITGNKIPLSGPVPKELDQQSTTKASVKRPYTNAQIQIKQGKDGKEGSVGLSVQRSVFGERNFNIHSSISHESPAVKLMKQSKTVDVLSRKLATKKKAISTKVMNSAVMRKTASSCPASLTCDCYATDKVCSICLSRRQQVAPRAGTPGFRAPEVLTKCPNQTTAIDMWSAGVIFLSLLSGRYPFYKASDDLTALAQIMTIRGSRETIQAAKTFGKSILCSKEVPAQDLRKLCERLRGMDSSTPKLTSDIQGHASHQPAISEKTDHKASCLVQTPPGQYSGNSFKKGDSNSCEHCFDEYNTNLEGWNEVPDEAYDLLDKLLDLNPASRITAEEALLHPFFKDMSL
Sequence of Focal adhesion kinase 1 (Q05397 whole entry): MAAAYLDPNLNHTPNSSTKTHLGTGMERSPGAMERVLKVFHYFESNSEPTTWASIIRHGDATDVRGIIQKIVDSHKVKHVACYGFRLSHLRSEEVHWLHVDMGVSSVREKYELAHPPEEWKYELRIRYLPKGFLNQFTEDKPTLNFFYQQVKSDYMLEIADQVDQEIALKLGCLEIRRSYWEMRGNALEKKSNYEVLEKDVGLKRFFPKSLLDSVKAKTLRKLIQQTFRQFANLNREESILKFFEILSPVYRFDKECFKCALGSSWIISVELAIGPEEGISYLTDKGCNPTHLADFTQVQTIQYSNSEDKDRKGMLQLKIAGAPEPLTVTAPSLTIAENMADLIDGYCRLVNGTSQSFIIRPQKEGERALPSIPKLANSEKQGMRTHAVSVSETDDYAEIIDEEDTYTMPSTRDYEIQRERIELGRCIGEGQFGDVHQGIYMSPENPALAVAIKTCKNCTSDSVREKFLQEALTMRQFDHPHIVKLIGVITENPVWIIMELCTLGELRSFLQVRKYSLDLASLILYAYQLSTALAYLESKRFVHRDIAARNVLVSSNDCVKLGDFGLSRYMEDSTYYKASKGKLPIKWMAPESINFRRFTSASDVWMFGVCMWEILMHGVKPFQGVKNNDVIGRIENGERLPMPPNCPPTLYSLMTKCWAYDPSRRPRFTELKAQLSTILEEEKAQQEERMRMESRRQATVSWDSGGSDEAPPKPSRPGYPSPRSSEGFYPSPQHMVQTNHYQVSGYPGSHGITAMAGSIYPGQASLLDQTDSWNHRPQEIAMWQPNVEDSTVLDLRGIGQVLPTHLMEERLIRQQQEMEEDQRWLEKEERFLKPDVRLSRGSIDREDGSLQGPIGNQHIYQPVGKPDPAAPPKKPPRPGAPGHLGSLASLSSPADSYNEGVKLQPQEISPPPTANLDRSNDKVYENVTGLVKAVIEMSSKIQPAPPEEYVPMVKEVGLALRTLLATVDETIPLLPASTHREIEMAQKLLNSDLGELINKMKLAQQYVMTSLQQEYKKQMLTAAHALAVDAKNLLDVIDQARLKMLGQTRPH
Sequence of DNA dC->dU-editing enzyme APOBEC-3A (P31941 whole entry): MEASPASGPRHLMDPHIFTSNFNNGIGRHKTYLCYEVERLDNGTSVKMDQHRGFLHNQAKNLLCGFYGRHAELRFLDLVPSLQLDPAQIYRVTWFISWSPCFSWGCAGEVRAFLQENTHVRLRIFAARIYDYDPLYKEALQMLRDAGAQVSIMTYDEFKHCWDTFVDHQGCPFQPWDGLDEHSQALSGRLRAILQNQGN

## CC/N=C1\S/C(=C\c2cc(C)n(-c3ccccc3F)c2C)C(=O)N1CC
[1]
  EC50: > 25 µM (inactive)
[2]
  EC50: > 25 µM (inactive)
[3]
  EC50: > 25 µM (inactive)
[4]
  EC50: > 25 µM (inactive)

## c1cc(SC2CCCCC2)cc(-c2nc3cnccn3c2NC2CCCCC2)c1
Beta Lactamase
  IC50: 4.83 µM (active)
[5]
  AC50: 1.58 µM (active)
CHO
  IC50: 23.4 µM (inactive)

## N#CC(c1ccccc1)c1c(Cl)cnn(Cc2ccc3ccccc3c2)c1=O (stereo unspecified)
[6]
  IC50: 3.04 µM (active)
[7]
  IC50: 3.04 µM (active)

## CCOc1nc(Nc2ccccc2)nc(Nc2ccc(-c3nc4ccccc4o3)cc2)n1
[8]
  IC50: > 99 µM (inactive)
[9]
  IC50: > 99 µM (inactive)

## CC(C)(C)c1cc(NC(=O)Nc2cccc3ccccc23)n(-c2cccc(C(=O)N(CCN)CCO)c2)n1
[10]
  Ki: > 7.94 µM (inactive)
[11]
  Ki: 1.26 µM (active)
[12]
  Ki: 0.794 µM (active)
[13]
  Ki: 2.51 µM (active)
[14]
  Ki: 3.16 µM (active)
[15]
  Ki: > 6.31 µM (inactive)
[16]
  Ki: > 6.31 µM (inactive)
[17]
  Ki: > 6.31 µM (inactive)
Focal adhesion kinase 1
  Ki: > 6.31 µM (inactive)
[18]
  Ki: > 6.31 µM (inactive)

## Fc1ccc(Nc2ncnc(Nc3ccc4cn[nH]c4c3)n2)cc1
Wee1-like protein kinase
  Ki: > 3.16 µM (inactive)
[19]
  Ki: 0.0501 µM (active)

## CC1c2cccn2CCN1Cc1nc2scc(-c3ccco3)c2c(=O)[nH]1 (stereo unspecified)
[20]
  Ki: 2.51 µM (active)
[21]
  Ki: 1.58 µM (active)
[22]
  Ki: 3.16 µM (active)
